{"source": "paper PMC11413854", "about": "“Reversible Control of Native GluN2B-Containing NMDA Receptors with Visible Light” (ACS Chemical Neuroscience, 2024)", "biological_target": "T1, GluN1/GluN2B receptors (UniProt P35439+Q01097)", "T1 construct": "expressed in transfected cells; host or cells: HEK-293 cells (ECACC, Cat #96121229)", "T1 sequence (Q01097 27-1482, other chains not shown)": "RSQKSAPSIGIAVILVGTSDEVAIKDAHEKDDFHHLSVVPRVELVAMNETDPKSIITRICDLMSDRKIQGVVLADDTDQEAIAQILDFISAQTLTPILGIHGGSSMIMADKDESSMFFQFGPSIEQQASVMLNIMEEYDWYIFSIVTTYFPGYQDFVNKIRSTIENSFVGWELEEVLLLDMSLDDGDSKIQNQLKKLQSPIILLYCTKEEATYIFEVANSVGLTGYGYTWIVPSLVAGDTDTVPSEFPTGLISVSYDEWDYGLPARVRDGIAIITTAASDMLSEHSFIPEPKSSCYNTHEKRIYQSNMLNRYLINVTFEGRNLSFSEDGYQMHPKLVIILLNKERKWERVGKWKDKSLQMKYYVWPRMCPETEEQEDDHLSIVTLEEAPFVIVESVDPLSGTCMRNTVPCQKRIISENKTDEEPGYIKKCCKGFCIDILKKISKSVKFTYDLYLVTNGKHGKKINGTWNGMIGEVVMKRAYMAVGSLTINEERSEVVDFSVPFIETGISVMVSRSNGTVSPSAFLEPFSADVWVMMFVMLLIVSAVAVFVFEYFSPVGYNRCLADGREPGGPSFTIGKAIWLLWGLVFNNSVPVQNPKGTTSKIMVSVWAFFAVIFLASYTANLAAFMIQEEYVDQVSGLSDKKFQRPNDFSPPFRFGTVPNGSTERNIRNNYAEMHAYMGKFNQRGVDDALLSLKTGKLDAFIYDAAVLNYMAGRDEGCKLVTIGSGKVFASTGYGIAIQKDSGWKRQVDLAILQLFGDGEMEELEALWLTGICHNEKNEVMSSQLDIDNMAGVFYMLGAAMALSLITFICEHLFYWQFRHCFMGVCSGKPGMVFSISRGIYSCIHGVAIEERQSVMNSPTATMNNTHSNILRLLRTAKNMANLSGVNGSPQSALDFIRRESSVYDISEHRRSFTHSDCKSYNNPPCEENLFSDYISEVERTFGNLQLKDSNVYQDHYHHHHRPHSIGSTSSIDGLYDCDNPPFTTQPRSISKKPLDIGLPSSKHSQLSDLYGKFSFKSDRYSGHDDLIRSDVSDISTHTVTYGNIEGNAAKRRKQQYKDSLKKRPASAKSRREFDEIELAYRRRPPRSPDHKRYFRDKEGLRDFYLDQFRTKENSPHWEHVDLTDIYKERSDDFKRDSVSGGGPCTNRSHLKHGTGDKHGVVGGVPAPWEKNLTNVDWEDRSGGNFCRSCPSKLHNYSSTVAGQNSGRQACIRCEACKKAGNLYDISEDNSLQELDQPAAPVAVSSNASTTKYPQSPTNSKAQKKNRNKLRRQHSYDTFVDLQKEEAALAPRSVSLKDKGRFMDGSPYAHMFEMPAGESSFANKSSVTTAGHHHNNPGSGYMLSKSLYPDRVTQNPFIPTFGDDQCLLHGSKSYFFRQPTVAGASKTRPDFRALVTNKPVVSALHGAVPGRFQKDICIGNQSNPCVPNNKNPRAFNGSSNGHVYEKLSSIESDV", "experiment": "Whole-cell patch-clamp and photomodulation in HEK cells expressing GluN1/GluN2B", "assay_type": "cell-based, rat GluN1, mouse GluN2B", "details": "for inhibition of GluN1/GluN2B currents in HEK cells: 2 µM; for inhibition at 2 µM: HEK293, 2 µM, read-out: inhibition of GluN1/GluN2B currents in HEK cells", "excerpt": "Now that we have established the photodependence of OptoNAM-3 action, we tested whether this compound could be used to perform real-time modulation of NMDAR activity with light. To answer this question, we turned to mammalian cells, whose transparency allows homogeneous illumination of all membrane-expressed NMDARs. OptoNAM-3 was perfused together with agonists glutamate and glycine on HEK cells expressing GluN1/GluN2B receptors. […] OptoNAM-3 thus allows real-time and reversible inhibition of GluN1/GluN2B activity with light. By plotting the effect of different concentrations of OptoNAM-3 in the dark and during UV illumination, we observed a 20-fold UV-induced shift of OptoNAM-3 IC50 compared to the dark condition (Figure 4C). […] The stronger photodependence of OptoNAM-3 action on HEK cells might stem either from differences between cellular expression systems (Xenopus oocytes vs HEK cells) or from the different irradiation contexts (in solution for experiments in Xenopus oocytes and in a cellular context for HEK cells) (see below).\nHEK293 cells were used for heterologous expression of recombinant NMDA receptors studies using whole-cell patch-clamp. Wild-type NMDARs were expressed in HEK-293 cells (obtained from ECACC, Cat #96121229). HEK cells were cultured in DMEM + glutamax medium supplemented with 10% fetal bovine calf serum and 1% penicillin/streptomycin (5000 U/mL) and cultured under standard cell culture conditions (5% CO2, 37 °C). Transfections were performed using polyethylenimine (PEI) in a cDNA/PEI ratio of 1:3 (v/v). Cells were cotransfected with a DNA mixture containing plasmids encoding wild-type GluN1, wild-type GluN2A or GluN2B, and eGFP. The total amount of DNA was 1.0 μg per 500 μL of transfected medium containing […] diameter coverslip, and the mass ratio of GluN1:GluN2B:eGFP was 1:2:1 (1:1:1 for GluN2A). 150 μM of D-APV was added to the culture medium after transfection.\nReceptor functionality, OptoNAM-3 photodependence (dark then UV light) of activity, and association/dissociation kinetics (with and without UV light) were assessed in patch-clamp recordings of lifted whole cells 24–72 h post transfection (cells were not lifted for the 2 light cycles protocol, i.e., when “perfusion turned off” was written below current traces). Positively transfected cells were visualized by GFP fluorescence. The extracellular solution contained (in mM) 140 NaCl, 2.8 KCl, 1 CaCl2, 10 HEPES, 20 sucrose, and 0.01 DTPA (290–300 mOsm), pH adjusted to 7.3 using NaOH. […] Currents were sampled at 10 kHz and low-pass filtered at 2 kHz using an Axopatch 200B amplifier, a 1550B Digidata, and Clampex 10.6 (Molecular Devices). Agonists (100 μM glutamate and 100 μM glycine) were applied using a multibarrel solution exchanger (RSC 200; BioLogic). Recordings were performed at a holding potential of −60 mV and at room temperature.\nComputer-controlled light pulses during electrophysiological recordings were provided from high power sensitive LEDs (CoolLED pE-4000: 4 channels each controlling 4 wavelengths from 365 to 770 nm). The LED port was directly coupled via a microscope adaptor to the fluorescence port of an inverted IX73 Olympus microscope. The output beam of the LED entry was directed toward the sample thanks to a mirror (Chroma) and applied to the center of the recording dish through a 10× objective (irradiance ∼4 mW/mm^2 for 365, 385, and 435 nm; ∼6.5 mW/mm^2 for 460 nm; ∼2 mW/mm^2 for 490 and 525 nm; ∼1.5 mW/mm^2 for 500 nm, and ∼4.5 mW/mm^2 for 550 and 580 nm) (Olympus, 0.30 N.A.). Light power was measured in the center of the recording dish plane with an optical power meter (1916-C, Newport) equipped with a calibrated UV/D detector, and irradiance was obtained upon dividing light power by the illuminated field of the microscope 10× objective (19 mm^2).\nData were collected and analyzed using pClamp 10.5 (Molecular Devices) and fitted using Sigmaplot 11.0 (SSPS). […]", "key": {"[1]": {"details": "550 nm illumination from UV state"}}, "note": "Where “and” joins values, the source holds several entries; their conditions need not be identical. Equal entries are not always repeated. Where two headings read alike, the source gives them in different places."}
{"smiles": "c1ccc(/N=N/c2ccc(CCNc3ccncc3)cc2)cc1", "note": "[OptoNAM-3, (E)-N-(4-(Phenyldiazenyl)phenethyl)pyridin-4-amine]", "values": [{"measurement": "inhibition of GluN1/GluN2B currents in HEK cells", "setting": "[1]", "value": 58.559, "unit": "%"}, {"measurement": "inhibition of GluN1/GluN2B currents in HEK cells", "setting": "dark", "value": 76.928, "unit": "%"}, {"measurement": "inhibition of GluN1/GluN2B currents in HEK cells", "setting": "under 365 nm illumination", "value": 23.428, "unit": "%"}, {"measurement": "inhibition at 2 µM", "setting": "[1]", "value": 59, "unit": "%"}, {"measurement": "inhibition at 2 µM", "setting": "dark", "value": 77, "unit": "%"}, {"measurement": "inhibition at 2 µM", "setting": "under 365 nm illumination", "value": 23, "unit": "%"}, {"measurement": "tau off of inhibition relief under UV illumination", "setting": "HEK cells, 365 nm", "value": 0.814, "unit": "s"}, {"measurement": "tau off of inhibition relief by washout in the dark", "setting": "HEK cells, dark", "value": 30.520, "unit": "s"}, {"measurement": "Relative current (IOpto/I0)", "setting": "[OptoNAM-3] 0.050 µM, HEK cells, 365 nm illumination", "value": 0.936}, {"measurement": "Relative current (IOpto/I0)", "setting": "[OptoNAM-3] 0.050 µM, HEK cells, dark PSS (trans)", "value": 0.679}, {"measurement": "Relative current (IOpto/I0)", "setting": "[OptoNAM-3] 0.125 µM, HEK cells, 365 nm illumination", "value": 0.926}, {"measurement": "Relative current (IOpto/I0)", "setting": "[OptoNAM-3] 0.125 µM, HEK cells, dark PSS (trans)", "value": 0.513}, {"measurement": "Relative current (IOpto/I0)", "setting": "[OptoNAM-3] 0.300 µM, HEK cells, 365 nm illumination", "value": 0.848}, {"measurement": "Relative current (IOpto/I0)", "setting": "[OptoNAM-3] 0.300 µM, HEK cells, dark PSS (trans)", "value": 0.435}, {"measurement": "Relative current (IOpto/I0)", "setting": "[OptoNAM-3] 0.500 µM, HEK cells, dark PSS (trans)", "value": 0.261}, {"measurement": "Relative current (IOpto/I0)", "setting": "[OptoNAM-3] 1.000 µM, HEK cells, 365 nm illumination", "value": 0.722}, {"measurement": "Relative current (IOpto/I0)", "setting": "[OptoNAM-3] 1.000 µM, HEK cells, dark PSS (trans)", "value": 0.205}, {"measurement": "Relative current (IOpto/I0)", "setting": "[OptoNAM-3] 1.500 µM, HEK cells, 365 nm illumination", "value": 0.713}, {"measurement": "Relative current (IOpto/I0)", "setting": "[OptoNAM-3] 1.500 µM, HEK cells, dark PSS (trans)", "value": 0.181}, {"measurement": "Relative current (IOpto/I0)", "setting": "[OptoNAM-3] 2.000 µM, HEK cells, 365 nm illumination", "value": 0.705}, {"measurement": "Relative current (IOpto/I0)", "setting": "[OptoNAM-3] 2.000 µM, HEK cells, dark PSS (trans)", "value": 0.166}, {"measurement": "Relative current (IOpto/I0)", "setting": "[OptoNAM-3] 2.500 µM, HEK cells, 365 nm illumination", "value": 0.442}, {"measurement": "Relative current (IOpto/I0)", "setting": "[OptoNAM-3] 2.500 µM, HEK cells, dark PSS (trans)", "value": 0.034}, {"measurement": "IC50", "setting": "cell illuminated at 365 nm, read-out: IC50 on GluN1/GluN2B in HEK cells illuminated at 365 nm", "value": "2950 nM and 3000 nM"}, {"measurement": "IC50", "setting": "dark, read-out: IC50 on GluN1/GluN2B in HEK cells in the dark", "value": 150, "unit": "nM"}]}
